Values joined by “and” are separate entries in the source; they are usually repeats but may differ in a detail not shown here. Equal entries are not always repeated.
Experiments:
Assay type in all cases: in vivo
[1] = test system: large intestinal roundworms (Ascaridia galli); test: Chicken large intestinal roundworm elimination test, single oral dose; settings: chickens; for Mean % Elimination / % Elimination: 7 days; for Mean % Elimination / Mean % body weight gain: group of 3; for % Elimination / % Body weight gain: individual chicken; for Mean % body weight gain / % Body weight gain: after 7 days
Protocol: Chickens verified to be artificially infected with large intestinal roundworms (Ascaridia galli) by scatoscopy were used in groups of three animals. The PF 1022 substance was used at five levels of dose from 0.2 mg/kg to 3 mg/kg. A total of 18 chickens were used in 6 groups, inclusive of an untreated control group.
For administration, an amount of the PF 1022 substance exactly equal to the dose calculated on the basis of the body weight of each chicken was weighed and suspended in water containing carboxymethylcellulose (CMC), and the suspension was administered orally as a single dose using a stomach tube. After administration, the worms eliminated were counted daily for each chicken and, after 7 days, each chicken was sacrificed and autopsied and the worms remaining in the intestinal tract were counted. The percent elimination was calculated as follows: [formula] Furthermore, the body weight just prior to administration and the body weight after 7 days were measured for each chicken and the percent body weight gain was calculated as follows: [formula]

[2] = test system: fourth stomachworms (Ostertaqia circumcincta); test: Sheep digestive tract nematodes, worms remaining in the fourth stomach; settings: for number of worms remaining in the fourth stomach at autopsy: autopsy 7 days after administration, mean of 6 animals
Protocol: (§1) The PF 1022 substance was evaluated for its anthelmintic effect in sheep mixedly infected with fourth stomachworms (Ostertaqia circumcincta) and small intestinal hairworms (Trichostrongylus colubriformis) by administering it orally to 24 sheep artificially infected with said two worm species.
(§2) The infected sheep were divided into 4 groups of 6 animals, which were respectively given 1 mg/kg, 5 mg/kg, 10 mg/kg and 0 mg/kg (control) of the substance suspended in 0.5% CMC, via a stomach catheter. The observation items were the number of parasite eggs per gram of feces (EPG) before administration, the EPG 7 days after administration, and the number of worms remaining in the fourth stomach and that of worms remaining in the intestinal tract as found upon autopsy 7 days after administration.
(§3) Each numerical value given is the mean of 6 animals.

[3] = test system: small intestinal hairworms (Trichostrongylus colubriformis); test: Sheep digestive tract nematodes, worms remaining in the intestinal tract; settings: for Number of worms remaining in At autopsy: autopsy 7 days after administration, mean of 6 animals
Protocol: as §1, §2, §3

[4] = test system: digestive tract nematodes (Haemonchus controtus, Ostertaqia ostertagi, hairworms, cooperids, etc.); test: Anthelmintic effect on bovine digestive tract nematodes (EPG); settings: cattle
Protocol: The PF 1022 substance was evaluated for its anthelmintic effect on the so-called digestive tract nematodes parasitizing cattle by orally administering it to three head of cattle found to be infected with such nematodes (Haemonchus controtus, Ostertaqia ostertagi, hairworms, cooperids, etc.) by scatoscopy.
The PF 1022 substance was administered either once at 5 mg/kg or for 2 days once daily at 12.5 mg/kg, in the form of a suspension in water, using a stomach catheter. Parasite eggs in feces (EPG) were counted daily for 3 days before administration and for 7 days following administration.

[5] = test system: roundworms (Parascaris equorum); test: Anthelmintic effect on equine roundworms; settings: horse, oral 5 mg/kg Day 0 and 2.5 mg/kg Day 1
Protocol: The PF 1022 substance was evaluated for its anthelmintic effect in a horse found by scatoscopy to be infected with roundworms (Parascaris equorum) and strongyles (Strongylus spp.) by orally administering the substance thereto.
The PF 1022 substance was suspended in water and administered with a stomach catheter at 5 mg/kg on the first day and at 2.5 mg/kg on the second day. For both the roundworms and strongyles, parasite eggs in each gram of feces (EPG) as well as parasites eliminated were counted daily for one week following the first administration. For strongyles, the number of worms in 100 g of feces was determined.

[6] = test system: large intestinal roundworms (Ascaridia galli); test: Chicken large intestinal roundworms, administration in feed for 3 weeks; settings: chickens; for Number of eggs before starting administration: baseline
Protocol: The PF 1022 substance was evaluated for its anthelmintic effect on 9 chickens found, by scatoscopy, to be infected with large intestinal roundworms (Ascaridia galli) by administering it in admixture with the feed.
The chickens were divided into three groups of 3 animals, which served as the 1 ppm, 5 ppm and 10 ppm groups. The feed containing the PF 1022 substance in each concentration mentioned above was given to the chickens for 3 weeks. Parasite eggs in feces were counted at one-week intervals in terms of EPG and worms eliminated were counted daily. At the end of the administration period, the chickens were sacrificed and autopsied and the worms remaining therein were counted.

[7] = single oral dose 0.2 mg/kg, 0.2 mg/kg
[8] = single oral dose 0.5 mg/kg, 0.5 mg/kg
[9] = single oral dose 1 mg/kg, 1 mg/kg
[10] = single oral dose 2 mg/kg, 2 mg/kg
[11] = single oral dose 3 mg/kg, 3 mg/kg

CC(C)C[C@H]1C(=O)O[C@H](Cc2ccccc2)C(=O)N(C)[C@@H](CC(C)C)C(=O)O[C@H](C)C(=O)N(C)[C@@H](CC(C)C)C(=O)O[C@H](Cc2ccccc2)C(=O)N(C)[C@@H](CC(C)C)C(=O)O[C@H](C)C(=O)N1C [PF 1022 substance]
Mean % Elimination ([1]; single oral dose 0.2 mg/kg): 18.5%
% Elimination [1, 7]: 12.9% and 16.0% and 26.7%
Mean % body weight gain ([1]; single oral dose 0.2 mg/kg): 9.6%
% Body weight gain [1, 7]: 6.3% and 8.4% and 14.0%
Mean % Elimination ([1]; single oral dose 0.5 mg/kg): 45.4%
% Elimination [1, 8]: 16.4% and 52.1% and 67.7%
Mean % body weight gain ([1]; single oral dose 0.5 mg/kg): 9.2%
% Body weight gain [1, 8]: 8.2% and 11.5% and 7.8%
Mean % Elimination ([1]; single oral dose 1 mg/kg): 74.1%
% Elimination [1, 9]: 60.0% and 76.1% and 86.2%
Mean % body weight gain ([1]; single oral dose 1 mg/kg): 8.7%
% Body weight gain [1, 9]: 8.2% and 6.6% and 11.2%
Mean % Elimination ([1]; single oral dose 2 mg/kg): 84.6%
% Elimination [1, 10]: 82.1% and 93.5% and 78.3%
Mean % body weight gain ([1]; single oral dose 2 mg/kg): 8.9%
% Body weight gain [1, 10]: 7.8% and 10.5% and 8.4%
% Elimination [1, 11]: 100% and 95.5% and 98.3%
% Body weight gain [1, 11]: 11.8% and 9.7% and 8.3%
number of worms remaining in the fourth stomach at autopsy ([2]; oral 1 mg/kg): 4967
number of worms remaining in the fourth stomach at autopsy ([2]; oral 5 mg/kg): 4717
number of worms remaining in the fourth stomach relative to the control infected group ([2]; oral 10 mg/kg): about half
number of worms remaining in the fourth stomach at autopsy ([2]; oral 10 mg/kg): 2463
Number of worms remaining in At autopsy ([3]; oral 1 mg/kg): 8750
Number of worms remaining in At autopsy ([3]; oral 5 mg/kg): 8317
number of worms remaining in the intestinal tract relative to the control infected group ([3]; oral 10 mg/kg): about half
Number of worms remaining in At autopsy ([3]; oral 10 mg/kg): 5333
EPG relative to that found before administration ([4]; 2 day administration at 12.5 mg/kg, day after the second day of administration): about half
EPG ([4]; oral 5.0 mg/kg x 1, Day 0 (day of first administration)): 34
EPG ([4]; oral 5.0 mg/kg x 1, Day 1): 44
EPG ([4]; oral 5.0 mg/kg x 1, Day 2): 61
EPG ([4]; oral 5.0 mg/kg x 1, Day 3): 18
EPG ([4]; oral 5.0 mg/kg x 1, Day 4): 30
EPG ([4]; oral 5.0 mg/kg x 1, Day 5): 6
EPG ([4]; oral 5.0 mg/kg x 1, Day 6): 27
EPG ([4]; oral 5.0 mg/kg x 1, Day 7): 7
EPG ([4]; oral 5.0 mg/kg x 1, Day -1 (before administration)): 34
EPG ([4]; oral 5.0 mg/kg x 1, Day -2 (before administration)): 32
EPG ([4]; oral 5.0 mg/kg x 1, Day -3 (before administration)): 30
EPG ([4]; oral 12.5 mg/kg x 2, Day 0 (day of first administration), 12.5 mg/kg): 112 and 64
EPG ([4]; oral 12.5 mg/kg x 2, Day 2, 12.5 mg/kg): 26 and 30
EPG ([4]; oral 12.5 mg/kg x 2, Day 3, 12.5 mg/kg): 34 and 41
EPG ([4]; oral 12.5 mg/kg x 2, Day 4, 12.5 mg/kg): 41 and 29
EPG ([4]; oral 12.5 mg/kg x 2, Day 5, 12.5 mg/kg): 41 and 34
EPG ([4]; oral 12.5 mg/kg x 2, Day 6, 12.5 mg/kg): 42 and 40
EPG ([4]; oral 12.5 mg/kg x 2, Day 7, 12.5 mg/kg): 49 and 36
EPG ([4]; oral 12.5 mg/kg x 2, Day -1 (before administration), 12.5 mg/kg): 109 and 67
EPG ([4]; oral 12.5 mg/kg x 2, Day -2 (before administration), 12.5 mg/kg): 109 and 58
EPG ([4]; oral 12.5 mg/kg x 2, Day -3 (before administration), 12.5 mg/kg): 91 and 58
EPG ([5]; Day 0): 77
Number of worms eliminated ([5]; Day 0): 0
EPG ([5]; Day 1): 52
Number of worms eliminated ([5]; Day 1): 22
EPG ([5]; Day 2): 0.4
Number of worms eliminated ([5]; Day 2): 17
EPG ([5]; Day 3): 0.2
Number of worms eliminated ([5]; Day 3): 0
EPG ([5]; Day 4): 0
Number of worms eliminated ([5]; Day 4): 0
EPG ([5]; Day 5): 0
Number of worms eliminated ([5]; Day 5): 0
EPG ([5]; Day 6): 0.2
Number of worms eliminated ([5]; Day 6): 0
EPG ([5]; Day 7): 0
Number of worms eliminated ([5]; Day 7): 0
Number of worms remaining ([6]; 1 ppm in feed for 3 weeks, autopsy): 49 and 96 and 83
Number of eggs before starting administration ([6]; 1 ppm in feed): > 300 and 172
% Elimination ([6]; 5 ppm in feed for 3 weeks): 86.1% and 56.9% and 62.5%
Number of eggs before starting administration ([6]; 5 ppm in feed): 300 and > 300 and 158
Number of worms eliminated ([6]; 10 ppm in feed for 3 weeks): 44 and 55 and 45
Number of eggs before starting administration ([6]; 10 ppm in feed): 300 and > 300 and 176

From patent US5116815A, “PF 1022 substance, method of treating helminthic parasitic infection and anthelmintic composition” (Meiji Seika Kaisha Ltd., priority 1989, dated 1992)
